Data published in PMC10254233, “Synthesis and In Vitro Biological Evaluation of p-Carborane-Based Di-tert-butylphenol Analogs” (Molecules, 2023).

What was measured:
HCT116 cells [1] = assay: ROS/RNS generation, DHR 123 staining; type: cell-based, human; conditions: HCT116, IC50 dose, 72 h
Source text: (§1) Apostat staining confirmed that apoptosis was in correlation with the activation of caspases (Figure 3C). […] The […] production of reactive oxygen species explains the observed effects of the applied treatments, namely inhibition of proliferation and induction of apoptosis (Figure 3E). It is widely accepted that drug-mediated hyperproduction of reactive oxygen species that are not buffered by cellular anti-oxidative protection is responsible for cell death induction. […] The described feature is acquired during disease progression, and it is tightly connected with abnormal blood supply and a hypoxic microenvironment. Therefore, elimination of these molecules results in a rapid decrease in cell viability. […]
Finally, after 72 h incubation, cells were washed, tryp-sinized, and analyzed using flow cytometry (CyFlow® Space Partec using the PartecFloMax® software […]
(30 µM) and R-830-Cb (50 µM)). […] Finally, for covering the slides fluorescent mounting medium was used and slides were ana-lyzed with Zeiss AxioObserver Z1 inverted fluorescence microscope (Carl Zeiss AG, Oberkochen, Ger-many) at 400 x magnification.
1.1.5. Evaluation of the role of detected autophagy
Concomitant treatment of R-830-Cb and autophagy inhibitors chloroquine and 3-MA was performed to determine the nature of detected autophagy. […] Cell viability was evaluated using CV assay after 72 h. […]

HCT116 cells [2] = assay: Acridine orange (AO) staining for autophagy; type: cell-based, human; conditions: HCT116, IC50 dose, 72 h
Source text: as §1
Non-adherent cells were removed two hours after seeding and treatment was applied. Cell viability was determined after 72 h using a crystal violet (CV) assay. […]
and R-830-Cb (50 μM) for 72 h. […] After 15 min incubation at room temperature (RT) protected from light the cells were resuspended in AnnV-binding buffer and analysed using flow cytom-etry. HCT116 cells were incubated with pan-caspase inhibitor Apostat for 30 min at 37 °C to determine whether detected apoptosis was mediated by caspase activation. […]

With “1-Hydroxy-12-(thiophen-2′-carbonyl)-1,12-dicarba-closo-dodecaborane(12) [Compound R-830-Cb]” the “reactive oxygen species production” value (HCT116 cells [1]) was “potent inhibition of ROS” and the “autophagy (AO staining)” value (HCT116 cells [2]) was “intense autophagy”.
